Source: PubChem BioAssay (NCI)
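A five-concentration, 48-hour dose response in 96-well plates underlies each endpoint, interpolated linearly between surrounding concentrations. Definition used: TGI = concentration required for complete inhibition of growth.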

Key:
Test in all cases: growth of human tumour cells (NCI), 48 h
UO-31 renal = tested on: UO-31 renal
SK-MEL-28 melanoma = tested on: SK-MEL-28 melanoma
SK-MEL-5 melanoma = tested on: SK-MEL-5 melanoma
PC-3 prostate = tested on: PC-3 prostate
UACC-257 melanoma = tested on: UACC-257 melanoma
LOX IMVI melanoma = tested on: LOX IMVI melanoma
HL-60(TB) leukemia = tested on: HL-60(TB) leukemia
K-562 leukemia = tested on: K-562 leukemia
OVCAR-8 ovarian = tested on: OVCAR-8 ovarian
SF-295 CNS = tested on: SF-295 CNS
SK-OV-3 ovarian = tested on: SK-OV-3 ovarian
SR leukemia = tested on: SR leukemia
HS 578T breast = tested on: HS 578T breast
786-0 renal = tested on: 786-0 renal
CAKI-1 renal = tested on: CAKI-1 renal
RPMI-8226 leukemia = tested on: RPMI-8226 leukemia
SK-MEL-2 melanoma = tested on: SK-MEL-2 melanoma
RXF 393 renal = tested on: RXF 393 renal
SNB-75 CNS = tested on: SNB-75 CNS
COLO 205 colon = tested on: COLO 205 colon
HT29 colon = tested on: HT29 colon
MDA-MB-435 = tested on: MDA-MB-435
HCT-15 colon = tested on: HCT-15 colon
SNB-19 CNS = tested on: SNB-19 CNS
BT-549 breast = tested on: BT-549 breast
ACHN renal = tested on: ACHN renal
NCI-H226 lung = tested on: NCI-H226 lung
HOP-62 NSCLC = tested on: HOP-62 NSCLC
HCT-116 colon = tested on: HCT-116 colon
OVCAR-4 ovarian = tested on: OVCAR-4 ovarian
MOLT-4 leukemia = tested on: MOLT-4 leukemia
DU-145 prostate = tested on: DU-145 prostate
EKVX NSCLC = tested on: EKVX NSCLC
MDA-N = tested on: MDA-N
UACC-62 melanoma = tested on: UACC-62 melanoma
MCF7 breast = tested on: MCF7 breast
SW-620 colon = tested on: SW-620 colon
NCI-H522 lung = tested on: NCI-H522 lung
KM12 colon = tested on: KM12 colon
SF-539 CNS = tested on: SF-539 CNS
T-47D breast = tested on: T-47D breast
A549 NSCLC = tested on: A549 NSCLC
NCI-H23 lung = tested on: NCI-H23 lung
M14 melanoma = tested on: M14 melanoma
HOP-92 NSCLC = tested on: HOP-92 NSCLC
A498 renal = tested on: A498 renal
CCRF-CEM leukemia = tested on: CCRF-CEM leukemia
NCI-H460 lung = tested on: NCI-H460 lung
SN12C renal = tested on: SN12C renal
SF-268 CNS = tested on: SF-268 CNS
NCI/ADR-RES ovarian = tested on: NCI/ADR-RES ovarian
IGROV1 ovarian = tested on: IGROV1 ovarian
OVCAR-5 ovarian = tested on: OVCAR-5 ovarian
U251 CNS = tested on: U251 CNS
MALME-3M melanoma = tested on: MALME-3M melanoma
TK-10 renal = tested on: TK-10 renal
OVCAR-3 ovarian = tested on: OVCAR-3 ovarian
MDA-MB-231 breast = tested on: MDA-MB-231 breast

Measured: TGI

NC(=O)NOCC1NC(=O)NC1=O (stereo not drawn)
> 100 µM: all assays above
